Article PMC11052077, “Discovery of Dolutegravir Derivative against Liver Cancer via Inducing Autophagy and DNA Damage” (Molecules, 2024)

Columns and labels:
in vitro = type: cell-based, human; conditions: human
Experimental: This study aimed to assess the anti-proliferative activity of dolutegravir-1,2,3-triazole derivatives on hepatocellular carcinoma cell lines, Huh7 and hepG2. A comprehensive CCK8 assay was employed to evaluate the impact of these compounds on cell viability, with cells treated at a concentration of 20 μM for 48 h. HRM cells, a normal cell line, were included as a control for comparative analysis. […]
(§1) CCK8 assay was used to measure cell viability. Cells with a density of 1 × 10^4 cells/well were seeded on 96-well plates. After adhesion, cells were treated with different diluted compounds or vehicle control DMSO and continued to be cultured for 48 h or 72 h, respectively. Then, CCK8 reagent was added for one hour incubation at 37 °C with 5% CO2. Absorbance was measured using a Microplate spectrophotometer (Thermo, Waltham, MA, USA) at 450 nm. The ratio of cell viability of control was taken as 100%. […] Then, IC50 of compounds were investigated using the prism statistical software 7.0.

Huh7 cells = test: CCK8 cell viability assay, Huh7; type: cell-based, human; conditions: Homo sapiens, Huh-7, 48 h
Experimental: (§2) This study aimed to assess the anti-proliferative activity of dolutegravir-1,2,3-triazole derivatives on hepatocellular carcinoma cell lines, Huh7 and hepG2. A comprehensive CCK8 assay was employed to evaluate the impact of these compounds on cell viability, with cells treated at a concentration of 20 μM for 48 h. HRM cells, a normal cell line, were included as a control for comparative analysis.
(§3) Human hepatocellular carcinoma cell lines Huh7 and hepG2 were obtained from ATCC (Manassas, VA, USA). Cells were cultured in DMEM or RPMI 1640 medium containing 10% FBS and 1% penicillin/streptomycin at 37 °C with a 5% CO2-humidified atmosphere.
as §1

hepG2 cells = test: CCK8 cell viability assay, hepG2; type: cell-based, human; conditions: Homo sapiens
Experimental: as §2, §3, §1

[1] = dose 27 times greater than the clinical dose, preclinical study; cited from earlier work

- IC50 (Huh7 cells; Huh7, CCK8, read-out: half maximal inhibitory concentration (IC50), Huh7): > 50 µM
- IC50 (hepG2 cells; HepG2, 48 h, hepG2, CCK8, read-out: half maximal inhibitory concentration (IC50), hepG2): > 50 µM
Structure (SMILES): C[C@@H]1CCO[C@H]2Cn3cc(C(=O)NCc4ccc(F)cc4F)c(=O)c(O)c3C(=O)N12 [DTG, Dolutegravir]
- viability at 48 h, 20 µM (in vitro): 99.6%
- viability at 20 µM (Huh7 cells; 20 μM, Huh7, CCK8, control taken as 100%): 96.9%
- viability at 20 µM (hepG2 cells; 20 μM, 48 h, hepG2, CCK8, control taken as 100%): 82.6%
- fertility and teratogenic toxicity [1]: no obvious fertility toxicity or teratogenic toxicity
